Holding throughout (format): in vivo
Assay [1] concerns Alopecurus myosuroides (ALOMY). The assay can be described thus: Test Example 1 pre-emergence herbicidal activity. The settings on record: Alopecurus myosuroides, 480 h, rate 250 g/ha, evaluated 20 days later, read-out: Pre-emergence activity ALOMY (100=total damage to plant; 0=no damage to plant). The essentials: (§1)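 Plants sown in standard soil in pots; sprayed 1 day after sowing (pre-emergence) or after 10 days' glasshouse cultivation (post-emergence) with aqueous spray of compound formulated in acetone plus Emulsogen EL/N-methylpyrrolidone/dipropylene glycol monomethyl ether/X-77 solution. Damage scored 0–100 (100 = total damage) after 20 days (pre) or 15 days (post).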

In assay [2] the test system is Avena fatua (AVEFA). The assay can be described thus: Test Example 1 pre-emergence herbicidal activity. The settings on record: Avena fatua, 480 h, rate 250 g/ha, evaluated 20 days later, read-out: Pre-emergence activity AVEFA (100=total damage to plant; 0=no damage to plant). The essentials: as §1
Assay [3] deals with Digitaria sanguinalis (DIGSA). Put plainly: Test Example 1 pre-emergence herbicidal activity. The settings on record: Digitaria sanguinalis, 480 h, rate 250 g/ha, evaluated 20 days later, read-out: Pre-emergence activity DIGSA (100=total damage to plant; 0=no damage to plant). An outline of the steps: as §1
Assay [4] deals with Echinochloa crus-galli (ECHCG). The assay can be described thus: Test Example 1 pre-emergence herbicidal activity. The note with it: Echinochloa crus-galli, 480 h, rate 250 g/ha, evaluated 20 days later, read-out: Pre-emergence activity ECHCG (100=total damage to plant; 0=no damage to plant). An outline of the steps: as §1
In assay [5] the test system is Lolium perenne (LOLPE). Put plainly: Test Example 1 pre-emergence herbicidal activity. The settings on record: Lolium perenne, 480 h, rate 250 g/ha, evaluated 20 days later, read-out: Pre-emergence activity LOLPE (100=total damage to plant; 0=no damage to plant). An outline of the steps:
as §1

The subject of assay [6] is Setaria faberi (SETFA). The assay can be described thus: Test Example 1 pre-emergence herbicidal activity. The note with it: Setaria faberi, 480 h, rate 250 g/ha, evaluated 20 days later, read-out: Pre-emergence activity SETFA (100=total damage to plant; 0=no damage to plant). An outline of the steps:
as §1

In assay [7] the test system is Alopecurus myosuroides (ALOMY). The assay can be described thus: Test Example 1 post-emergence herbicidal activity. The settings on record: 360 h, rate 125 g/ha, evaluated 15 days later, read-out: Post-emergence activity ALOMY (100=total damage to plant; 0=no damage to plant). An outline of the steps: as §1
Assay [8] has as its system Avena fatua (AVEFA). The assay can be described thus: Test Example 1 post-emergence herbicidal activity. The note with it: 360 h, rate 125 g/ha, evaluated 15 days later, read-out: Post-emergence activity AVEFA (100=total damage to plant; 0=no damage to plant). The essentials: as §1
The subject of assay [9] is Digitaria sanguinalis (DIGSA). Put plainly: Test Example 1 post-emergence herbicidal activity. The settings on record: 360 h, rate 125 g/ha, evaluated 15 days later, read-out: Post-emergence activity DIGSA (100=total damage to plant; 0=no damage to plant). The essentials:
as §1

Assay [10] deals with Echinochloa crus-galli (ECHCG). Put plainly: Test Example 1 post-emergence herbicidal activity. The settings on record: 360 h, rate 125 g/ha, evaluated 15 days later, read-out: Post-emergence activity ECHCG (100=total damage to plant; 0=no damage to plant). The essentials:
as §1

For assay [11], the system named is Lolium perenne (LOLPE). Put plainly: Test Example 1 post-emergence herbicidal activity. The settings on record: 360 h, rate 125 g/ha, evaluated 15 days later, read-out: Post-emergence activity LOLPE (100=total damage to plant; 0=no damage to plant). The essentials: as §1
For assay [12], the system named is Setaria faberi (SETFA). Put plainly: Test Example 1 post-emergence herbicidal activity. The note with it: 360 h, rate 125 g/ha, evaluated 15 days later, read-out: Post-emergence activity SETFA (100=total damage to plant; 0=no damage to plant). The essentials:
as §1

With `Cc1cc(C)c(C2=C(O)C3C(C2=O)[C@@H]2CC(CO)[C@@]3(C)O2)c(C)c1` (stereo partly drawn) [Example T62], the pest or weed control at 250 g/ha in [1] came out at 70%; in the assay on Avena fatua (AVEFA) [2] it was 70%; in assay [3], 80%; in [4], 80%; with Lolium perenne (LOLPE) [5], 60%; in the assay with Setaria faberi (SETFA) [6], 80%. Besides, the pest or weed control at 125 g/ha was 60% in assay [7]; 0% in the assay on Avena fatua (AVEFA) [8]; 70% in assay [9]; 80% in [10]; 20% in the assay on Lolium perenne (LOLPE) [11]; 70% with Setaria faberi (SETFA) [12].
With `Cc1cc(C)c(C2=C(O)[C@@H]3[C@@H]4O[C@@H](C[C@H]4C)[C@@H]3C2=O)c(C)c1` [Example T65], the pest or weed control at 250 g/ha in [1] stood at 100%; with Avena fatua (AVEFA) [2], 90%; in assay [3], 100%; in assay [4], 100%; with Lolium perenne (LOLPE) [5], 100%; in the assay on Setaria faberi (SETFA) [6] it was 90%. The pest or weed control at 125 g/ha in assay [7] is 90%; in the assay on Avena fatua (AVEFA) [8] it was 90%; in [9], 100%; in assay [10] it was 100%; in the assay on Lolium perenne (LOLPE) [11] it was 80%; in the assay with Setaria faberi (SETFA) [12], 100%.
In the case of `CSc1ccc([C@@H]2C[C@@H]3O[C@H]2[C@H]2C(O)=C(c4c(C)cc(C)cc4C)C(=O)[C@H]23)cc1` [Example T66], the pest or weed control at 250 g/ha in [1] is 30%; in the assay on Avena fatua (AVEFA) [2], 60%; in assay [3], 90%; in [4], 70%; with Lolium perenne (LOLPE) [5], 40%; in the assay with Setaria faberi (SETFA) [6], 100%. For the same compound, the pest or weed control at 125 g/ha in [7] stood at 80%; with Avena fatua (AVEFA) [8], 80%; in [9] it was 90%; in assay [10], 80%; in the assay on Lolium perenne (LOLPE) [11], 50%; with Setaria faberi (SETFA) [12], 80%.
`Cc1cc(C)c(C2=C(O)[C@@H]3[C@@H]4O[C@@H](C[C@H]4c4cccc(C(F)(F)F)c4)[C@@H]3C2=O)c(C)c1` [Example T85]: the pest or weed control at 250 g/ha is 40% in assay [1]; 60% with Avena fatua (AVEFA) [2]; 60% in assay [3]; 70% in assay [4]; 70% in the assay on Lolium perenne (LOLPE) [5]; 70% with Setaria faberi (SETFA) [6]. For the same compound, the pest or weed control at 125 g/ha in assay [7] was found to be 90%; in the assay on Avena fatua (AVEFA) [8], 20%; in [9], 20%; in assay [10], 100%; with Lolium perenne (LOLPE) [11] it was 70%; with Setaria faberi (SETFA) [12], 70%.
Turning to `Cc1cc(C)c(C2=C(O)[C@@H]3[C@@H]4O[C@@H](C[C@H]4c4cccc(C#N)c4)[C@@H]3C2=O)c(C)c1` [Example T89], the pest or weed control at 250 g/ha in assay [1] is 20%; in the assay on Avena fatua (AVEFA) [2], 60%; in assay [3] it was 30%; in assay [4], 20%; with Lolium perenne (LOLPE) [5], 40%; in the assay on Setaria faberi (SETFA) [6], 30%. Moreover, the pest or weed control at 125 g/ha came to 80% in [7]; 80% with Avena fatua (AVEFA) [8]; 90% in assay [9]; 100% in [10]; 80% in the assay on Lolium perenne (LOLPE) [11]; 90% with Setaria faberi (SETFA) [12].
As for `Cc1cc(C)c(C2=C(O)[C@@H]3[C@@H]4O[C@@H](C[C@H]4c4ccc([N+](=O)[O-])cc4)[C@@H]3C2=O)c(C)c1` [Example T90], the pest or weed control at 250 g/ha in [1] turned out to be 10%; with Avena fatua (AVEFA) [2], 60%; in [3], 60%; in assay [4] it was 70%; in the assay with Lolium perenne (LOLPE) [5], 20%; with Setaria faberi (SETFA) [6], 40%. Moreover, the pest or weed control at 125 g/ha was 90% in [7]; 80% in the assay with Avena fatua (AVEFA) [8]; 80% in assay [9]; 80% in assay [10]; 60% in the assay with Lolium perenne (LOLPE) [11]; 60% in the assay with Setaria faberi (SETFA) [12].
For `Cc1cc(C)c(C2=C(O)[C@@H]3[C@@H]4O[C@@H](C[C@H]4c4ccc(OC(F)(F)F)cc4)[C@@H]3C2=O)c(C)c1` [Example T91], the pest or weed control at 250 g/ha was 20% in assay [1]; 50% with Avena fatua (AVEFA) [2]; 70% in [3]; 50% in [4]; 20% in the assay on Lolium perenne (LOLPE) [5]; 50% in the assay on Setaria faberi (SETFA) [6]. Also, the pest or weed control at 125 g/ha in [7] was 90%; in the assay with Avena fatua (AVEFA) [8], 90%; in assay [9] it was 100%; in assay [10], 100%; in the assay on Lolium perenne (LOLPE) [11] it was 50%; with Setaria faberi (SETFA) [12] it was 100%.
On to `Cc1cc(C)c(C2=C(O)[C@@H]3[C@@H]4O[C@@H](C[C@H]4c4ccc(C(F)(F)F)cc4)[C@@H]3C2=O)c(C)c1` [Example T92], for which the pest or weed control at 250 g/ha in assay [1] worked out at 20%; with Avena fatua (AVEFA) [2], 60%; in [3], 70%; in assay [4], 90%; in the assay on Lolium perenne (LOLPE) [5], 30%; with Setaria faberi (SETFA) [6], 70%. Besides, the pest or weed control at 125 g/ha in assay [7] was determined as 100%; with Avena fatua (AVEFA) [8], 100%; in assay [9], 100%; in assay [10], 100%; in the assay with Lolium perenne (LOLPE) [11] it was 50%; with Setaria faberi (SETFA) [12], 100%.
In the case of `Cc1cc(C)c(C2=C(O)[C@@H]3[C@@H]4O[C@@H](C[C@H]4c4ccc(C#N)cc4)[C@@H]3C2=O)c(C)c1` [Example T93], the pest or weed control at 250 g/ha was 40% in assay [1]; 30% with Avena fatua (AVEFA) [2]; 30% in [3]; 0% in assay [4]; 20% in the assay on Lolium perenne (LOLPE) [5]; 30% in the assay on Setaria faberi (SETFA) [6]. Moreover, the pest or weed control at 125 g/ha in assay [7] was found to be 60%; with Avena fatua (AVEFA) [8], 80%; in [9], 100%; in assay [10], 100%; in the assay on Lolium perenne (LOLPE) [11], 60%; with Setaria faberi (SETFA) [12] it was 100%.
With `Cc1cc(C)c(C2=C(O)[C@@H]3[C@@H]4O[C@@H](C[C@@H]4C)[C@@H]3C2=O)c(C)c1` [Example T97], the pest or weed control at 250 g/ha in assay [1] was 100%; with Avena fatua (AVEFA) [2], 90%; in assay [3], 100%; in [4], 100%; in the assay on Lolium perenne (LOLPE) [5] it was 100%; with Setaria faberi (SETFA) [6], 90%. The pest or weed control at 125 g/ha in assay [7] was 90%; with Avena fatua (AVEFA) [8], 90%; in assay [9] it was 100%; in [10] it was 100%; in the assay with Lolium perenne (LOLPE) [11], 80%; with Setaria faberi (SETFA) [12], 100%.

The record behind these values is patent publication US8754242B2, “Herbicides” (Syngenta Crop Protection LLC, priority 2007, dated 2014).
